Read-outs that look alike come from different tables or passages of the source.
Key:
[1] = tested on: Rhipicephalus (Boophilus) microplus; test: In vitro injection test with Rhipicephalus (Boophilus) microplus (BOOPMI Inj); details: 168 h, laid fertile eggs after 7 days, read-out: acaricidal activity; for pest or weed control at 32 ng: dose 0.032 μg/animal injected; for pest or weed control at 0.00016 mg: dose 0.16 μg/animal injected; for pest or weed control at 0.0008 mg: dose 0.8 μg/animal injected
Summary of the method: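 Five engorged adult females each get a 1 μl abdominal injection of compound dissolved and diluted in DMSO. Kept 7 days at 28° C./85% rel. hum.; percent activity rates egg laying and egg fertility (0% all fertile, 100% none laid or infertile).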

Dermacentor variabilis [2] = test: In vitro contact test with adult hard ticks (Dermacentor variabilis); details: read-out: acaricidal activity; for pest or weed control at 0.2 µg/cm2, 0.2 µg/cm2: dose 0.2 μg/cm^2, 48 h; for pest or weed control at 1 µg/cm2, 1 µg/cm2: dose 1 μg/cm^2, 48 h
Summary of the method: (§1)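 Acaricidal activity = % ticks dead or moribund after 48 h contact with acetone-deposited compound on vial walls (e.g., 900 ppm solution → 5 μg/cm^2). Ambient conditions for R. sanguineus, 21° C./85% rel. hum. for other species; heat challenge at 45-50° C. separated climbers from moribund ticks.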

Ctenocephalides felis [3] = test: Ctenocephalides felis in-vitro feeding test with fleas (CTECFE oral); details: 48 hours, read-out: insecticidal feeding activity; for pest or weed control at 0.032 ppm: dose 0.032 ppm in citrated cattle blood; for pest or weed control at 0.16 ppm: dose 0.16 ppm in citrated cattle blood; for pest or weed control at 0.8 ppm: dose 0.8 ppm in citrated cattle blood; for pest or weed control at 4 ppm: dose 4 ppm in citrated cattle blood
Summary of the method: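 Scored as percent fleas killed (0–100%) 48 hours after feeding began. Compound, dissolved in DMSO and diluted into citrated cattle blood, was offered via a parafilm membrane to roughly 20 adult male and female C. felis at about 37° C.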

Laodelphax striatellus = test: Insecticidal testing against small brown planthopper; format: in vivo; details: 144 h, concentration 100 ppm, sprayed rice seedlings, after 6 days, read-out: pesticidal rate
Summary of the method: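 Acetone solution of compound at a set concentration sprayed onto rice seedlings, air-dried, then exposed to 10 planthoppers (one group). Held at 25° C; survival rate recorded after 6 days.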

Spodoptera litura = test: Insecticidal testing against common cutworm; format: in vivo; details: foliar, 144 h, concentration 100 ppm, cabbage leaf dip, second-stage larvae, after 6 days, read-out: pesticidal rate
Description: Insecticidal Testing Against Common Cutworm (Spodoptera litura)

Plutella xylostella = test: Insecticidal testing against diamondback moth; format: in vivo; details: foliar, 144 h, concentration 100 ppm, cabbage leaf dip, third-stage larvae, after 6 days, read-out: pesticidal rate
Description: Insecticidal Testing Against Diamondback Moth (Plutella xylostella)

Ixodes ricinus = test: In vitro contact test with adult hard ticks (Ixodes ricinus); details: read-out: acaricidal activity; for pest or weed control at 5 µg/cm2, 5 µg/cm2: dose 5 μg/cm^2, 48 h; for pest or weed control at 1 µg/cm2, 1 µg/cm2: dose 1 μg/cm^2, 48 h
Summary of the method: as §1

Amblyomma americanum = test: In vitro contact test with hard ticks (Amblyomma americanum nymphs); details: read-out: acaricidal activity; for pest or weed control at 1 µg/cm2, 1 µg/cm2: dose 1 μg/cm^2, 48 h
Summary of the method: as §1

Ctenocephalides felis [4] = test: Systemic treatment in-vivo test with cat flea on rats; details: Ctenocephalides felis, ip, intraperitoneal injection, 10 mg/kg
Method: (§2) Systemic Treatment In-Vivo Test with American Dog Tick Nymph and Cat Flea on Rats
(§3) Type of study and overall study design: The method is a randomized non-blinded efficacy study in accordance with European animal welfare requirements. Rats (Rattus norvegicus) were randomized based on pre-treatment flea counts. The efficacy of treatment was determined by comparison of the flea and tick counts of different treatment groups versus the placebo-treated control group. The experimental unit was the individual study animal. Method and route of administration: The compound was applied in a suitable solvent and carrier (more specifically, added to glycerol formal; in case of poorly soluble compounds, a solvent mixture with up to 25% by volume of N-methyl pyrrolidone may be used.) considering the individual body weight as an intraperitoneal injection.
(§4) Experimental infestation: On the day of treatment and weekly thereafter, 30 ticks (D. variabilis nymphs) were released onto the back of each rat, and 30 fleas (C. felis) were released onto the back of each rat 24 h later.
(§5) Tick and Flea counting: Rats were thoroughly examined and ticks and fleas were manually removed 48 h (±4 h) after tick infestation and 24 h after flea infestation. Live fleas and live attached engorged ticks were counted. In non-evident cases, engorgement status was evaluated by squeezing the tick on a filter paper to find traces of blood as sign for engorgement.

Ctenocephalides felis [5] = test: In vitro contact test with fleas; details: read-out: insecticidal activity; for pest or weed control at 0.04 µg/cm2, 0.04 µg/cm2: dose 0.04 μg/cm^2, dead or moribund fleas after 48 h; for pest or weed control at 0.2 µg/cm2, 0.2 µg/cm2: dose 0.2 μg/cm^2, dead or moribund fleas after 48 h; for pest or weed control at 1 µg/cm2, 1 µg/cm2: dose 1 μg/cm^2, dead or moribund fleas after 48 h
Summary of the method: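 Activity is the percentage of fleas dead or moribund at 48 h, judged by immobility or uncoordinated movement after tapping. Tubes were coated by evaporating acetone solutions (900 ppm gives 5 μg/cm^2), then held 5-10 adult fleas of both sexes at room temperature and ambient humidity.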

Rhipicephalus sanguineus = test: In vitro contact test with adult hard ticks (Rhipicephalus sanguineus); details: read-out: acaricidal activity; for pest or weed control at 0.2 µg/cm2, 0.2 µg/cm2: dose 0.2 μg/cm^2, 48 h; for pest or weed control at 1 µg/cm2, 1 µg/cm2: dose 1 μg/cm^2, 48 h
Summary of the method: as §1

Dermacentor variabilis [6] = test: Systemic treatment in-vivo test with American dog tick nymph on rats; details: Dermacentor variabilis, ip, intraperitoneal injection, 2 mg/kg
Method: as §2, §3, §4, §5

[7] = SD 2, read-out: Geometric mean percent reduction in live flea (Ctenocephalides felis) counts compared to untreated control rats
[8] = SD 9, read-out: Geometric mean percent reduction in live flea (Ctenocephalides felis) counts compared to untreated control rats
[9] = SD 16, read-out: Geometric mean percent reduction in live flea (Ctenocephalides felis) counts compared to untreated control rats
[10] = SD 23, read-out: Geometric mean percent reduction in live flea (Ctenocephalides felis) counts compared to untreated control rats

`CN(C(=O)c1ccc(F)cc1)c1cccc(C(=O)Nc2c(Br)cc(C(F)(C(F)(F)F)C(F)(F)C(F)(F)F)cc2C(F)(F)F)c1F` (centres unmarked) [Compound 93] showed a pest or weed control at 32 ng [1] of 100%, a pest or weed control at 0.00016 mg [1] of 100% and a pest or weed control at 0.0008 mg [1] of 100%. It also gave a pest or weed control at 0.2 µg/cm2, 0.2 µg/cm2 (Dermacentor variabilis [2]) of 90%, a pest or weed control at 1 µg/cm2, 1 µg/cm2 (Dermacentor variabilis [2]) of 90% and a pest or weed control at 0.032 ppm (Ctenocephalides felis [3]) of 95%. The pest or weed control at 0.16 ppm (Ctenocephalides felis [3]) was 95%, the pest or weed control at 0.8 ppm (Ctenocephalides felis [3]) was 95% and the pest or weed control at 4 ppm (Ctenocephalides felis [3]) was 95%. For the same compound, the pest or weed control at 100 ppm (Laodelphax striatellus) was ≥ 70%, the pest or weed control at 100 ppm (Spodoptera litura) was ≥ 70% and the pest or weed control at 100 ppm (Plutella xylostella) was ≥ 70%. The pest or weed control at 5 µg/cm2, 5 µg/cm2 (Ixodes ricinus) was 90%, the pest or weed control at 1 µg/cm2, 1 µg/cm2 (Amblyomma americanum) was 90% and the inhibition in vivo at 10 mg/kg (Ctenocephalides felis [4]; [7]) was 100%. For the same compound, the inhibition in vivo at 10 mg/kg (Ctenocephalides felis [4]; [8]) was 97%, the inhibition in vivo at 10 mg/kg (Ctenocephalides felis [4]; [9]) was 68% and the inhibition in vivo at 10 mg/kg (Ctenocephalides felis [4]; [10]) was 14%. It also gave a pest or weed control at 0.04 µg/cm2, 0.04 µg/cm2 (Ctenocephalides felis [5]) of 95%, a pest or weed control at 0.2 µg/cm2, 0.2 µg/cm2 (Ctenocephalides felis [5]) of 95% and a pest or weed control at 1 µg/cm2, 1 µg/cm2 (Ctenocephalides felis [5]) of 95%.
`CN(C(=O)c1ccc(F)cc1)c1cccc(C(=O)Nc2c(I)cc(C(F)(C(F)(F)F)C(F)(F)F)cc2S(=O)(=O)C(F)(F)F)c1F` [Compound 70, 2-fluoro-3-(4-fluoro-N-methylbenzamido)-N-(2-iodo-4-(perfluoropropan-2-yl)-6-((trifluoromethyl)sulfonyl)phenyl)benzamide] showed a pest or weed control at 32 ng [1] of 100%, a pest or weed control at 0.00016 mg [1] of 100% and a pest or weed control at 0.0008 mg [1] of 100%. For the same compound, the pest or weed control at 0.032 ppm (Ctenocephalides felis [3]) was 95%, the pest or weed control at 0.16 ppm (Ctenocephalides felis [3]) was 95% and the pest or weed control at 0.8 ppm (Ctenocephalides felis [3]) was 95%. The pest or weed control at 4 ppm (Ctenocephalides felis [3]) was 95%, the pest or weed control at 0.2 µg/cm2, 0.2 µg/cm2 (Rhipicephalus sanguineus) was 90% and the pest or weed control at 1 µg/cm2, 1 µg/cm2 (Rhipicephalus sanguineus) was 90%. The pest or weed control at 100 ppm (Laodelphax striatellus) was ≥ 70%, the pest or weed control at 100 ppm (Spodoptera litura) was ≥ 70% and the pest or weed control at 100 ppm (Plutella xylostella) was ≥ 70%. It also gave an inhibition in vivo at 10 mg/kg (Ctenocephalides felis [4]; [7]) of 99%, an inhibition in vivo at 10 mg/kg (Ctenocephalides felis [4]; [8]) of 100% and an inhibition in vivo at 10 mg/kg (Ctenocephalides felis [4]; [9]) of 99%. The inhibition in vivo at 10 mg/kg (Ctenocephalides felis [4]; [10]) was 49%, the inhibition in vivo at 10 mg/kg (Ctenocephalides felis [4]; SD 30, read-out: Geometric mean percent reduction in live flea (Ctenocephalides felis) counts compared to untreated control rats) was 7% and the pest or weed control at 0.2 µg/cm2, 0.2 µg/cm2 (Ctenocephalides felis [5]) was 95%. For the same compound, the pest or weed control at 1 µg/cm2, 1 µg/cm2 (Ctenocephalides felis [5]) was 95%.
For `CN(C(=O)c1ccc(F)cc1)c1cccc(C(=O)Nc2c(I)cc(C(F)(C(F)(F)F)C(F)(F)F)cc2OC(F)F)c1F` [Compound 90], the pest or weed control at 6.4 ng ([1]; dose 0.0064 μg/animal injected) was 100%, the pest or weed control at 32 ng [1] was 100% and the pest or weed control at 0.00016 mg [1] was 100%. The pest or weed control at 0.0008 mg [1] was 100%, the pest or weed control at 0.2 µg/cm2, 0.2 µg/cm2 (Dermacentor variabilis [2]) was 90% and the pest or weed control at 1 µg/cm2, 1 µg/cm2 (Dermacentor variabilis [2]) was 90%. The inhibition in vivo at 2 mg/kg (Dermacentor variabilis [6]; SD 2, read-out: Geometric mean percent reduction in live tick (Dermacentor variabilis) counts compared to untreated control rats) was 100%, the inhibition in vivo at 2 mg/kg (Dermacentor variabilis [6]; SD 9, read-out: Geometric mean percent reduction in live tick (Dermacentor variabilis) counts compared to untreated control rats) was 83% and the inhibition in vivo at 2 mg/kg (Dermacentor variabilis [6]; SD 16, read-out: Geometric mean percent reduction in live tick (Dermacentor variabilis) counts compared to untreated control rats) was 29%. It also gave a pest or weed control at 0.032 ppm (Ctenocephalides felis [3]) of 95%, a pest or weed control at 0.16 ppm (Ctenocephalides felis [3]) of 95% and a pest or weed control at 0.8 ppm (Ctenocephalides felis [3]) of 95%. For the same compound, the pest or weed control at 4 ppm (Ctenocephalides felis [3]) was 95%, the pest or weed control at 0.2 µg/cm2, 0.2 µg/cm2 (Rhipicephalus sanguineus) was 90% and the pest or weed control at 1 µg/cm2, 1 µg/cm2 (Rhipicephalus sanguineus) was 90%. For the same compound, the pest or weed control at 100 ppm (Laodelphax striatellus) was ≥ 70%, the pest or weed control at 100 ppm (Spodoptera litura) was ≥ 70% and the pest or weed control at 100 ppm (Plutella xylostella) was ≥ 70%. The pest or weed control at 1 µg/cm2, 1 µg/cm2 (Ixodes ricinus) was 90%, the pest or weed control at 5 µg/cm2, 5 µg/cm2 (Ixodes ricinus) was 90% and the pest or weed control at 0.04 µg/cm2, 0.04 µg/cm2 (Ctenocephalides felis [5]) was 95%. For the same compound, the pest or weed control at 0.2 µg/cm2, 0.2 µg/cm2 (Ctenocephalides felis [5]) was 95% and the pest or weed control at 1 µg/cm2, 1 µg/cm2 (Ctenocephalides felis [5]) was 95%.
Compound `O=C(Nc1cccc(C(=O)Nc2c(Br)cc(C(F)(C(F)(F)F)C(F)(F)F)cc2OC(F)(F)F)c1F)c1ccc(F)cc1` [Compound 71] has a pest or weed control at 32 ng [1] of 100%, a pest or weed control at 0.00016 mg [1] of 100% and a pest or weed control at 0.0008 mg [1] of 100%. For the same compound, the pest or weed control at 0.2 µg/cm2, 0.2 µg/cm2 (Dermacentor variabilis [2]) was 90%, the pest or weed control at 1 µg/cm2, 1 µg/cm2 (Dermacentor variabilis [2]) was 90% and the pest or weed control at 0.8 ppm (Ctenocephalides felis [3]) was 95%. It also gave a pest or weed control at 4 ppm (Ctenocephalides felis [3]) of 95%, a pest or weed control at 0.04 µg/cm2, 0.04 µg/cm2 (Rhipicephalus sanguineus; dose 0.04 μg/cm^2, 48 h) of 90% and a pest or weed control at 0.2 µg/cm2, 0.2 µg/cm2 (Rhipicephalus sanguineus) of 90%. The pest or weed control at 1 µg/cm2, 1 µg/cm2 (Rhipicephalus sanguineus) was 90%, the pest or weed control at 100 ppm (Laodelphax striatellus) was ≥ 70% and the pest or weed control at 100 ppm (Spodoptera litura) was ≥ 70%. For the same compound, the pest or weed control at 100 ppm (Plutella xylostella) was ≥ 70%, the pest or weed control at 0.2 µg/cm2, 0.2 µg/cm2 (Ixodes ricinus; dose 0.2 μg/cm^2, 48 h) was 90% and the pest or weed control at 1 µg/cm2, 1 µg/cm2 (Ixodes ricinus) was 90%. It also gave a pest or weed control at 5 µg/cm2, 5 µg/cm2 (Ixodes ricinus) of 90%, a pest or weed control at 0.2 µg/cm2, 0.2 µg/cm2 (Amblyomma americanum; dose 0.2 μg/cm^2, 48 h) of 90% and a pest or weed control at 1 µg/cm2, 1 µg/cm2 (Amblyomma americanum) of 90%. For the same compound, the pest or weed control at 0.2 µg/cm2, 0.2 µg/cm2 (Ctenocephalides felis [5]) was 95% and the pest or weed control at 1 µg/cm2, 1 µg/cm2 (Ctenocephalides felis [5]) was 95%.
